Measurements: ChEMBL document CHEMBL1138507, “Synthesis, activity, and pharmacophore development for isatin-beta-thiosemicarbazones with selective activity toward multidrug-resistant cells” (J Med Chem, 2009)

Experiments:
[1] = cells; conditions: Homo sapiens, KB-V1, 72 h
Description: Cytotoxicity against human P-glycoprotein-expressing KBV1 cells after 72 hrs by MTT assay

[2] = cells; conditions: Homo sapiens, KB 3-1, 72 h
Description: Cytotoxicity against human P-gp-negative KB-3-1 cells after 72 hrs by MTT assay

[3] = molecular target: Tyrosine-protein kinase ABL1 (Homo sapiens, UniProt P00519); assay: Inhibition of ABL1
[4] = molecular target: Cyclin-dependent kinase 2 (Homo sapiens, UniProt P24941); assay: Inhibition of CDK2/cyclinA
[5] = molecular target: Protein kinase C alpha type (Homo sapiens, UniProt P17252); assay: Inhibition of PKCalpha
[6] = molecular target: Rho-associated protein kinase 1 (Homo sapiens, UniProt Q13464); assay: Inhibition of ROCK1
[7] = molecular target: T1, Serine/threonine-protein kinase Chk1 (Homo sapiens, UniProt O14757)
T1 sequence (O14757 whole entry): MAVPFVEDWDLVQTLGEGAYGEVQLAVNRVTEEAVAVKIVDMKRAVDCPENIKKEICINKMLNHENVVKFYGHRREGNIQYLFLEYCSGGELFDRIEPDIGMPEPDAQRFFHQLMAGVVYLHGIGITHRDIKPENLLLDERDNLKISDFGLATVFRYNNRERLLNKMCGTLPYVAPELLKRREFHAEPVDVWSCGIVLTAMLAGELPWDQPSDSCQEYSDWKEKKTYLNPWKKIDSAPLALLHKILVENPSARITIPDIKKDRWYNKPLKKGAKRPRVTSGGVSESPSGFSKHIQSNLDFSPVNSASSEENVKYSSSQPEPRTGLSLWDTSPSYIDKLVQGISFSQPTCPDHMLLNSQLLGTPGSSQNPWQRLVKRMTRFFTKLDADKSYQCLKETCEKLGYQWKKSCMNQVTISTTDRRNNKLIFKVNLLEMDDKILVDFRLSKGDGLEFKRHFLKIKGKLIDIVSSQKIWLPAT

[8] = molecular target: T2, Receptor-type tyrosine-protein kinase FLT3 (Homo sapiens, UniProt P36888)
T2 sequence (P36888 whole entry): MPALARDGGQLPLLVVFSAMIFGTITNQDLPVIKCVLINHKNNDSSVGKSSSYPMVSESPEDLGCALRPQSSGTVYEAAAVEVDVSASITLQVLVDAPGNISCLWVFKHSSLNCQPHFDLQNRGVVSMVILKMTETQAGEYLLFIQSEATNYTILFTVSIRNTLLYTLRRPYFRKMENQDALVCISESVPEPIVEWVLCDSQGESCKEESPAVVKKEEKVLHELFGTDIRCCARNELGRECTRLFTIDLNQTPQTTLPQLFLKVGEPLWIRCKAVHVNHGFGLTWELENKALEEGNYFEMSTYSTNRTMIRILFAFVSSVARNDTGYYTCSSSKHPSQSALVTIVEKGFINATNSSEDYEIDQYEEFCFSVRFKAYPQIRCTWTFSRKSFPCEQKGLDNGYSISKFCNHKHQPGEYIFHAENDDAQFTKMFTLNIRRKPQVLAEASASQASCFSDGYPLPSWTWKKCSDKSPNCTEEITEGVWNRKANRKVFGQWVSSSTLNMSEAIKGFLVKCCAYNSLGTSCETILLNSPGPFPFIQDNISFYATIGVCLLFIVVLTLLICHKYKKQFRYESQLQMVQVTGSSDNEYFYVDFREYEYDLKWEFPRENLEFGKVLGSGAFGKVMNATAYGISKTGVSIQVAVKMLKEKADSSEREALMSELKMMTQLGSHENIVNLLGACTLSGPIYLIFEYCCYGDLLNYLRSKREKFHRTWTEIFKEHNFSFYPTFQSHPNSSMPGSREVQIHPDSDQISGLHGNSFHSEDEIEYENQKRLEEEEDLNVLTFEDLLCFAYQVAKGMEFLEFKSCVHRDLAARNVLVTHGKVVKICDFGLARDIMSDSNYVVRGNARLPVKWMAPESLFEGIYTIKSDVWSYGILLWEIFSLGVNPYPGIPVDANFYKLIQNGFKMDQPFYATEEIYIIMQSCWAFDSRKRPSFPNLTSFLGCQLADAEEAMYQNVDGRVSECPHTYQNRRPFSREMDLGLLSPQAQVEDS

[9] = molecular target: Serine/threonine-protein kinase pim-1 (Homo sapiens, UniProt P11309)
[10] = molecular target: Serine/threonine-protein kinase PLK2 (Homo sapiens, UniProt Q9NYY3)
[11] = molecular target: Ribosomal protein S6 kinase alpha-1 (Homo sapiens, UniProt Q15418)
Chain of Ribosomal protein S6 kinase alpha-1 (Q15418 whole entry): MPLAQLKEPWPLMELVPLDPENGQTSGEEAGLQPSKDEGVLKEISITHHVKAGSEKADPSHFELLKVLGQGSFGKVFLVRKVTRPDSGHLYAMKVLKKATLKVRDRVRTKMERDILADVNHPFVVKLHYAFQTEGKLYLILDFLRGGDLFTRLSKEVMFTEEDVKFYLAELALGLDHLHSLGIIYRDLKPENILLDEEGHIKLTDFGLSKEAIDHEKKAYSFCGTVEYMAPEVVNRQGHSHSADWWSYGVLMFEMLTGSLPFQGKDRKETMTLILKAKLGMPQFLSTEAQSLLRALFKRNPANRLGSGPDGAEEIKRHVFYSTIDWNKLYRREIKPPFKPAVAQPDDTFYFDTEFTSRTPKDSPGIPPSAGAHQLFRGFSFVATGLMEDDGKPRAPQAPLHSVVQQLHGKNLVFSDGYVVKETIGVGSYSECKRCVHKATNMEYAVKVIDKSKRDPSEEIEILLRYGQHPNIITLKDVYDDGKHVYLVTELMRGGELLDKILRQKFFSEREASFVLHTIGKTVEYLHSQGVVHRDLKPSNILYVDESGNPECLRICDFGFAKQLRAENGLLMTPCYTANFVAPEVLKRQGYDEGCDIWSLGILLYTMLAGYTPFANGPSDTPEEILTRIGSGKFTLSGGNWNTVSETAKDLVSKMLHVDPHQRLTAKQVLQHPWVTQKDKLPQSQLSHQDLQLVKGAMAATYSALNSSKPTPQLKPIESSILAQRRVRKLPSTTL

Chain of Serine/threonine-protein kinase PLK2 (Q9NYY3 whole entry): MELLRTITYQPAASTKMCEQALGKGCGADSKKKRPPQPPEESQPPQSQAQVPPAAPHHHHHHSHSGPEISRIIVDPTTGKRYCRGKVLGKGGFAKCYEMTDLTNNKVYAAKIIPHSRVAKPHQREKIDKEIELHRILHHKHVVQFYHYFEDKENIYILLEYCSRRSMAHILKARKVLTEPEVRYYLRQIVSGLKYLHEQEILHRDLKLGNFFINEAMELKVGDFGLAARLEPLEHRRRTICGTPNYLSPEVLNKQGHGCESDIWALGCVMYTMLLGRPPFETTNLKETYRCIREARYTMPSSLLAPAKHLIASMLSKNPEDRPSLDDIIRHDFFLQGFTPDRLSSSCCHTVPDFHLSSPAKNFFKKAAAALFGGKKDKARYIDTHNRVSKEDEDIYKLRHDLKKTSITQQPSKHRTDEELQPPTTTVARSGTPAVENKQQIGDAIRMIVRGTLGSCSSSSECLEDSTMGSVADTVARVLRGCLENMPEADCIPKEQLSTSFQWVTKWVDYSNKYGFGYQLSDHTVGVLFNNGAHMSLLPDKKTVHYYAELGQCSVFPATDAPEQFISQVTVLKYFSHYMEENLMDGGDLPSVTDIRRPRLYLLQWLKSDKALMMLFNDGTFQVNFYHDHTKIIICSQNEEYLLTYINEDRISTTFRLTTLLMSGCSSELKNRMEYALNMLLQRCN
Chain of Serine/threonine-protein kinase pim-1 (P11309 whole entry): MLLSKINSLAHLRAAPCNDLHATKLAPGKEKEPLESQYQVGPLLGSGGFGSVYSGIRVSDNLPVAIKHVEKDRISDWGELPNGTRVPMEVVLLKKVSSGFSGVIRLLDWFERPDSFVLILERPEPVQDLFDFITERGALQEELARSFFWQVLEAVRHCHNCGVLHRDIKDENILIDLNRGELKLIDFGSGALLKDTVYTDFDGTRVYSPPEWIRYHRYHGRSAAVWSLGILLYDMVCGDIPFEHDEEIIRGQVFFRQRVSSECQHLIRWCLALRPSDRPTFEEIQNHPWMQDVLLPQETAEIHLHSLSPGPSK
Chain of Tyrosine-protein kinase ABL1 (P00519 whole entry): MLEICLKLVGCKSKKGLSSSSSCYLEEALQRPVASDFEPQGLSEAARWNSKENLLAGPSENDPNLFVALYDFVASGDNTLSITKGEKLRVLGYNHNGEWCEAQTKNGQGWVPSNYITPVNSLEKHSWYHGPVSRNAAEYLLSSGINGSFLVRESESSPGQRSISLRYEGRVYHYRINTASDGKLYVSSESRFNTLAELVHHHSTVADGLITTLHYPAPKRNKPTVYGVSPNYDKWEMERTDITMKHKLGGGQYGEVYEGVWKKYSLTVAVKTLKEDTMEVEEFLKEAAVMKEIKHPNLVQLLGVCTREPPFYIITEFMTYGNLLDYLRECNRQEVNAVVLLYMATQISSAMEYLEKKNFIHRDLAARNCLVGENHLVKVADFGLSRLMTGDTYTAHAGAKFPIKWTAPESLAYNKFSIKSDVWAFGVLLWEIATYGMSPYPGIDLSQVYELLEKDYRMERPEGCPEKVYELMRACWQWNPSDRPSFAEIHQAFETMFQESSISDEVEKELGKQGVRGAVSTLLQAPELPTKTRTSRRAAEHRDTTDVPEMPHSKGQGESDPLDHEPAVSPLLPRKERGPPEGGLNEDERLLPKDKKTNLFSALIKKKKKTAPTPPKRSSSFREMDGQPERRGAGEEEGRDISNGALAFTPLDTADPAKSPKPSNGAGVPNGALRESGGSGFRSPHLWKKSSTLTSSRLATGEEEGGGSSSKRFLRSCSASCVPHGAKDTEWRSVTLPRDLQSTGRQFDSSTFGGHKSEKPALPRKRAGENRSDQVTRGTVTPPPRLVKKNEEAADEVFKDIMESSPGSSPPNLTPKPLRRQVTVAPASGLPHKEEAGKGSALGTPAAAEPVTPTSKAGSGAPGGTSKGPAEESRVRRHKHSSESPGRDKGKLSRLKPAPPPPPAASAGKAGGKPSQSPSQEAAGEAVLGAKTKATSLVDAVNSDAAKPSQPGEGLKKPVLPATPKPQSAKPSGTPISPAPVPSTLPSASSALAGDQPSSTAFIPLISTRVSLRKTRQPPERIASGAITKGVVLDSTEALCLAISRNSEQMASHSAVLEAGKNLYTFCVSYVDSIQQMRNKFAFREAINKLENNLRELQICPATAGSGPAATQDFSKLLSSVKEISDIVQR
Chain of Rho-associated protein kinase 1 (Q13464 whole entry): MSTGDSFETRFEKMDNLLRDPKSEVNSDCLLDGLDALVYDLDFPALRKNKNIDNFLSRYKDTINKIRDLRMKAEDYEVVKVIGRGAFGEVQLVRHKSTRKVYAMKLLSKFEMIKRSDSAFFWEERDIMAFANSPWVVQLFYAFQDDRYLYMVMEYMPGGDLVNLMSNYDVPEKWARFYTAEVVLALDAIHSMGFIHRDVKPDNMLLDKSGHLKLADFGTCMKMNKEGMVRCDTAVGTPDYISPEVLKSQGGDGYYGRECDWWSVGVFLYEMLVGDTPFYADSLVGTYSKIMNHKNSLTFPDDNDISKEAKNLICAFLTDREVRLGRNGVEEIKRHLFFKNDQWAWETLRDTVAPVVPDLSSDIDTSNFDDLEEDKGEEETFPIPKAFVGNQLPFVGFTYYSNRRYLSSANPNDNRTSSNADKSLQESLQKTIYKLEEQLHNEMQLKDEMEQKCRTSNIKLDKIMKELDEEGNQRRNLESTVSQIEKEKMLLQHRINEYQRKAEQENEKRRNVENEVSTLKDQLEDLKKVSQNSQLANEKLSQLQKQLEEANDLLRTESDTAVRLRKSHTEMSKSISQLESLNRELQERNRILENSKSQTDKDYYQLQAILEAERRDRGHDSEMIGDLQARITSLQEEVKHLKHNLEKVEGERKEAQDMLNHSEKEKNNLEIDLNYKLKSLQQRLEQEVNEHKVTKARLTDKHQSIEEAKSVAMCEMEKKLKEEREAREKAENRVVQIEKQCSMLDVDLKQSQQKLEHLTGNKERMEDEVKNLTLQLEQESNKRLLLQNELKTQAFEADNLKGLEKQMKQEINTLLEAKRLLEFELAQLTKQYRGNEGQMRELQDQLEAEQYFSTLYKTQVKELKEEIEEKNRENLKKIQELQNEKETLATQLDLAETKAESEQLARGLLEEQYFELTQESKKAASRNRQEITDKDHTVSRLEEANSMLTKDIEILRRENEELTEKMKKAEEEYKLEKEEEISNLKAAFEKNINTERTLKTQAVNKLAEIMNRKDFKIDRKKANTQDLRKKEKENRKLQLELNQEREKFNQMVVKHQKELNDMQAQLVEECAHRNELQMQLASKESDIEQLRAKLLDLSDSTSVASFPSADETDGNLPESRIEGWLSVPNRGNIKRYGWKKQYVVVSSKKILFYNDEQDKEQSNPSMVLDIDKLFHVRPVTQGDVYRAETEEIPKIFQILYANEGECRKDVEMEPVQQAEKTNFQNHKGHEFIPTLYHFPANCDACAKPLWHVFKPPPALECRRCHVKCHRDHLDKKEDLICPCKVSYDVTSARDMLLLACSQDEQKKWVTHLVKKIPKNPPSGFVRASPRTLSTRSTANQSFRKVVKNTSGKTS

Row | IC50 [1] | IC50 [2] | IC50 ([1]; read-out: pIC50 (converted)) | IC50 ([2]; read-out: pIC50 (converted)) | Structure (SMILES) | also measured
1 | > 50 µM | > 50 µM |  |  | COc1ccc(NC(=S)NN=C2Cc3ccccc3C2)cc1 | 
2 | > 50 µM | 27.7 µM |  |  | COc1ccc(NC(=O)N/N=C2\C(=O)Nc3ccccc32)cc1 | 
3 | 6.7 µM | 26.3 µM | 6.76 µM | 26.3 µM | COc1ccc(NC(=S)N/N=C2\C(=O)Nc3ccc([N+](=O)[O-])cc32)cc1 | 
4 | > 50 µM | > 50 µM |  |  | COc1ccc(NC(=S)N/N=C2\CCc3ccccc32)cc1 | 
5 | 5.2 µM | 39.3 µM | 5.25 µM | 38.9 µM | COc1ccc(NC(=S)N/N=C2\C(=O)Nc3ccc(F)cc32)cc1 | 
6 | 34.3 µM | 17 µM | 35.5 µM | 28.2 µM | C=CCNC(=S)N/N=C1\C(=O)Nc2ccc([N+](=O)[O-])cc21 | 
7 | 4 µM | 28.4 µM | 3.98 µM | 28.2 µM | O=C1Nc2ccc(Br)cc2/C1=N/NC(=S)Nc1ccc([N+](=O)[O-])cc1 | 
8 | > 50 µM | > 50 µM |  |  | COc1ccc(NC(=S)N/N=C2\C(=O)Nc3ccc(S(=O)(=O)O)cc32)cc1 | 
9 | 9.3 µM | 19.6 µM | 9.33 µM | 19.5 µM | COc1ccc(NC(=S)N/N=C2\C(=O)N(C)c3ccccc32)cc1 | 
10 | > 50 µM | > 50 µM |  |  | NC(=O)N/N=C1\C(=O)Nc2ccccc21 | 
11 | 30.3 µM | 4.4 µM |  | 4.37 µM | COc1ccc(NC(=S)N/N=C2\C(=O)Nc3c2ccc2ccccc32)cc1 | 
12 | 10.2 µM | 14.5 µM | 10.2 µM | 14.5 µM | O=C1Nc2ccc([N+](=O)[O-])cc2/C1=N/NC(=S)Nc1ccccc1 | 
13 | 20.7 µM | 26.1 µM | 20.9 µM | 26.3 µM | C=CCNC(=S)N/N=C1\C(=O)Nc2ccccc21 | 
14 | 5.8 µM | 13.1 µM | 5.75 µM | 13.2 µM | O=C1Nc2ccc(Br)cc2/C1=N/NC(=S)Nc1ccc(F)cc1 | 

The remaining lines, values behind:

Row | Structure (SMILES) | IC50 [1] | IC50 [2] | IC50 ([1]; read-out: pIC50 (converted)) | IC50 ([2]; read-out: pIC50 (converted)) | also measured
15 | NC(=S)N/N=C/c1ncccc1N [TRIAPINE] | 5.9 µM | 1.4 µM | 5.89 µM | 1.41 µM | 
16 | COc1ccc(NC(=S)N/N=C/c2ccc(NC(C)=O)cc2)cc1 | > 50 µM | > 50 µM |  |  | 
17 | O=C1Nc2ccccc2C1=O [ISATIN] | > 50 µM | > 50 µM |  |  | 
18 | CCOC(=O)C(=CNC(=S)N/N=C1\C(=O)Nc2ccccc21)C(=O)OCC | > 50 µM | > 50 µM |  |  | 
19 | COc1ccc(NC(=S)NNC2=c3ccccc3=NC2=O)cc1 | 3.3 µM | 14.2 µM | 3.31 µM | 14.1 µM | IC50 [3]: > 50 µM; IC50 [4]: > 50 µM; IC50 [5]: > 50 µM; IC50 [6]: > 50 µM; IC50 [7]: > 50 µM; IC50 [8]: > 50 µM; IC50 [9]: > 50 µM; IC50 [10]: > 50 µM; IC50 [11]: 34.9 µM
20 | NC(=S)/N=N/c1c(O)[nH]c2ccccc12 | > 50 µM | > 50 µM |  |  | 
21 | COc1ccc(NC(=S)NN)cc1 | > 50 µM | > 50 µM |  |  | 
22 | Cc1cnc(/C=N/NC(N)=S)c2cccc(N)c12 | 2.1 µM | 1.9 µM | 2.09 µM | 1.91 µM | 
23 | CC(=O)Nc1ccc(/C=N/NC(N)=S)cc1 [AMITHIOZONE] | > 50 µM | > 50 µM |  |  | 
24 | COc1ccc(NC(=S)N/N=C/c2ccccn2)cc1 | 2.4 µM | 3.4 µM | 2.4 µM | 3.39 µM | 
